Legend:
[1] = Tolerance to the treatment and autopsy in mice with A-431 xenografts; assay type: in vivo
Description: Tolerance to the treatment was estimated according to the time of death which corresponded to the treatment with each preparation.
Mice were sacrificed by ether anesthesia overdose. An autopsy was performed, and tumors were then extracted and assayed histologically and immunohistochemically. Tumors were fixed in 10% formaldehyde and set into paraffin wax. Histological assays were carried out on tumor histological sections, stained with hematoxylin and eosin. The number of microvessels was examined by standard immunological method using antibodies to CD34 antigen. Presence of vessel mimicry was estimated by tumor section staining with Schiffs reagent.

[2] = tested on: HCT116 p53+/+; experiment: Growth of human large intestine carcinoma xenografts, wild type p53; assay type: in vivo, mouse; conditions: SkQ1 in drinking water, 0.5-50 nM/kg/day, 4 weeks
Description: (§1) Two human large intestine carcinoma cell sub-lines that differ by p53 status—wild type cells (HCT116 p53+/+)) and cells with inactivated p53 (HCT116 p53−/−)) cell line cultivation see in Bunz et al. (1998) Science, 282:1497-1500; see model description in Sablina et al. (2003), J. Biol. Chem., 278:27362-27371. One million cells were hypodermically implanted into thymus-deprived mice. Mice in each group were divided into 4 sub-groups of 10 mice: one group received water to drink; one group received water with SkQ1 (0.01 nmol) per mouse per day (0.5 nM/kg/day); one group received water with SkQ1 (0.1 nmol) per mouse per day (5 nM/kg/day); one group received water with SkQ1 (1 nmol) per mouse per day (50 nM/kg/day).
(§2) The size of the tumors was evaluated every 3 days. After 4 weeks mice were sacrificed and the tumors removed and fixed for histological assay.

[3] = Mouse life-span when managed in a chamber without sterile aeration; assay type: in vivo; conditions: SkQ1 added to drinking water
[4] = tested on: HCT116 p53−/−; experiment: Growth of human large intestine carcinoma xenografts, inactivated p53; assay type: in vivo, mouse
Description: as §1, §2

[5] = tested on: human rhabdomyosarcoma cell line (RD); experiment: RD cell morphology, attachment and multinuclear cells; assay type: cell-based
Description: In the following experiment, a human rhabdomyosarcoma cell line (RD) purchased from the ATCC (#CCL-136) was used. These cells were isolated from a […] 7 years ago and are widely accepted as a model for studies of rhabdomyosarcoma in vitro and in vivo.
The cells were grown in Dulbecco's modified Eagle's medium (DMEM, Gibco®, Invitrogen, Carlsbad, Calif.) supplemented with 10% FBS. The cells were treated with 20 nM SkQ (SkQ1, SkQR1, SkQB1, or SkQBP1), or with a non-targeted antioxidant (1 mM NAC, or 100 μM Trolox) 24 to 72 hours before evaluation. In some experiments 1 μM of the protonophorous uncoupler FCCP was added 1 hour before the addition of SkQ1 to depolarize the mitochondrial membrane, and thus to prevent the electrophoretic accumulation of SkQ in the mitochondrial interior. The cells were then stained with rabbit polyclonal antibodies against actin (1:1000) (Sigma-Aldrich Corp., Baleras, Russia) and monoclonal antibody DM1A against tubulin (1:1000) (Sigma-Aldrich Corp.), and their morphology examined using an Axiovert fluorescent microscope equipped with objectives 20× (dry) and 100× (oil immersion Neofluar) (Carl Zeiss, Germany).

[6] = tested on: Lung Lewis's carcinoma; experiment: SkQ1 combined with doxorubicin on growth of lung Lewis's carcinoma; assay type: in vivo, mouse; conditions: regime per group
Description: For development of oncological diseases joint therapy that combines SkQ1 and chemotherapy, a study on SkQ1 influence on single doxorubicin injection efficiency was performed (one of the mechanisms of the preparation is activation of oxidative processes in normal and cancerous cells). SkQ1 was introduced before, simultaneously, or after introduction of doxorubicin in maximum dose of 500 nM/kg (in order to block oxidative mechanism of doxorubicin influence).
Doxorubicin was applied before, after, and during the course of SkQ1.

[7] = Experiment 1, 5.0 nM/kg ip daily day 1-14
[8] = Experiment 1, 50.0 nM/kg ip daily day 1-14
[9] = Experiment 3, 5.0 nM/kg ip daily day 1-14

CC1=C(C)C(=O)C(CCCCCCCCCC[P+](c2ccccc2)(c2ccccc2)c2ccccc2)=CC1=O [SkQ1]
Autopsy findings in organs [1, 7]: no visual signs of pathological changes | Treatment tolerance [1, 7]: satisfactory | Autopsy findings in organs [1, 8]: no pathological changes | Treatment tolerance [1, 8]: satisfactory | Autopsy findings in organs ([1]; Experiment 2, 5.0 nM/kg ip daily day 1-8): no visual signs of pathological changes | Autopsy findings in organs [1, 9]: no visual signs of pathological changes | Treatment tolerance [1, 9]: satisfactory | Tumor growth vs control group receiving pure water [2]: suppression of tumor growth | Immunity to infectious diseases (by mouse life-span) [3]: increased HIV mice immunity to infectious diseases | Effect on tumors with inactivated p53 compared to WT p53 ([4]; SkQ1 in drinking water): stronger effect on the tumor with inactivated p53 | Tumor growth vs control group receiving pure water ([4]; SkQ1 in drinking water, 0.5-50 nM/kg/day, 4 weeks, inactivated p53): suppression of tumor growth | dose of maximal effect ([4]; added to drinking water): 5 nM | efficient concentration ([4]; in drinking water, equals 5 nM/kg/day, stated for the HCT116 study): 0.1 nmol per mouse per day | Cell morphology ([5]; 20 nM, pretreatment for 24 hours): induced the formation of elongated cells | Multinuclear cells in surviving cell fraction ([5]; 8th day of cultivation with SkQ1): enriched in multinuclear cells | cells remained attached to the surface ([5]; 8th day of cultivation with nM SkQ1): about 4% | TGS %, by tumor volume ([6]; Day 7, SkQ 500 nmol 0.2 ml/mouse per os x5, DOX 7 mg/kg ip): 33% | TGS %, by tumor volume ([6]; Day 7, SkQ 500 nmol 0.2 ml/mouse per os x5, DOX 7 mg/kg ip, listed as SkQ): 33^ % | TGS %, by tumor volume ([6]; Day 10): 42% | TGS %, by tumor volume ([6]; Day 14): 48% | TGS %, by tumor volume ([6]; Day 17): 28% | TGS %, by tumor volume ([6]; Day 21): 30%
